The values that follow come from patent publication US12570648B2, “6,7-dihydro-5H-pyrido[2,3-c]pyridazine derivatives and related compounds as Bcl-xL protein inhibitors and pro-apoptotic agents for treating cancer” (LES LABORATOIRES SERVIER, priority 2019, dated 2026).

For test [1], the target named is His-His-(EK)-hsBCLXL(2-197)[N197C] (Homo sapiens (Human), UniProt Q07817, N197C). Briefly: Fluorescence quenching assay. The class given is binding. The settings on record: 1 nM Cy5-labelled protein, 400 nM PUMA peptide, 2 hours at 23° C.; KI determined from IC50. The text has this: Fluorescence quenching assay measures the change in fluorescence intensity of C-terminally Cy5-labelled BCL-xL protein, His-His-(EK)-hsBCLXL(2-197)[N197C] (UniProtKB®
which is linked in C-terminal region to the amino acid X which corresponds to a cysteine labelled on the sulfur with Sulfo-Cyanine5 from Lumiprobe GmbH catalogue number 13380, upon binding of a C-terminally labelled peptide derived from PUMA (UniProtKB® primary accession number Q9BXH1) having an aminoacid sequence (SEQ ID:04): [[…]] which is linked in C-terminal region to the amino acid X′ where X′ is cysteine labelled on the sulfur with TQ5WS from AAT Bioquest catalogue number 2079.
The addition of a compound which binds competitively to the same site as the peptide will result in an increase in the fluorescence intensity of the protein due to displacement of the fluorescence quencher.
An 11-point serial dilution of each compound was prepared in DMSO, the final buffer conditions were 10 mM 4-(2-hydroxyethyl)-1-piperazineethanesulfonic acid [HEPES], 150 mM NaCl, 0.05% Tween 20, pH 7.4 and 5% DMSO. The final protein concentration in the assay was 1 nM with the peptide present at 400 nM. The experiments were incubated for 2 hours at 23° C. before fluorescence intensity was measured on a Biotek SynergyNeo plate reader (Excitation 620 nm, emission 680 nm). […] The K1 values were determined from the IC50 values according to Cer et al, Nucleic Acids Res, 2009, Jul. 1; 37 (WebServer issue): W441-W445.

In another test the test system is MOLT-4 cells. Briefly: MOLT-4 cell viability using MTT assay. The class given is cell-based. The settings on record: Homo sapiens, MOLT-4, 48 h, 48 h exposure. On the procedure: MTT colorimetric assay is based on the mitochondrial reduction of tetrazolium salt by living cells.
Cells were cultured at 37° C. in a humidified atmosphere containing 5% CO2. […] At the end of incubation time, 15 μL of MTT solution (5 mg/ml) were added per well and the cells were incubated for another 4 h. […] IC50s were calculated using standard four-parametric curve fitting.

Sequence of His-His-(EK)-hsBCLXL(2-197)[N197C] (Q07817 2-197 N197C): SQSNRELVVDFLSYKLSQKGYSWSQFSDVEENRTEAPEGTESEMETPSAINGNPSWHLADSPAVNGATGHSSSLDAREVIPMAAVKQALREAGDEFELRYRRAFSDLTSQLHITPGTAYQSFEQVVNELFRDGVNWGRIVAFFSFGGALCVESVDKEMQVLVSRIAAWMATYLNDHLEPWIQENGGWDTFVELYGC

By Ki is commonly meant a measure of affinity in units of concentration, obtained from inhibition or displacement. The IC50 is the concentration that inhibits the measured activity by half. For `CNCCOC12CC3(C)CC(C)(CC(Cn4ncc(-c5ccc(N6CCCc7c6nnc(Nc6nc8ccccc8s6)c7C)nc5C(=O)O)c4C)(C3)C1)C2` [Example 94, 6-{3-[(1,3-benzothiazol-2-yl)amino]-4-methyl-6,7-dihydropyrido[2,3-c]pyridazin-8(5H)-yl}-3-[1-({3,5-dimethyl-7-[2-(methylamino)ethoxy]adamantan-1-yl}methyl)-5-methyl-1H-pyrazol-4-yl]pyridine-2-carboxylic acid], in test [1], the Ki came to 0.0015 nM. Also, the IC50 in the test with MOLT-4 cells was 0.616 nM.

With `Cc1c(Nc2nc3ccccc3s2)nnc2c1CCCN2c1nc(C(=O)O)c(CCCOc2cc(C#CCN(C)C)ccc2F)s1` [Example 78, 2-[3-(1,3-Benzothiazol-2-ylamino)-4-methyl-6,7-dihydro-5H-pyrido[2,3-c]pyridazin-8-yl]-5-[3-[5-[3-(dimethylamino)prop-1-ynyl]-2-fluoro-phenoxy]propyl]thiazole-4-carboxylic acid], the Ki in test [1] worked out at 0.023 nM. Also, in the test on MOLT-4 cells, inhibition was half-maximal at 2.46 nM (IC50).

Take `Cc1c(Nc2nc3ccccc3s2)nnc2c1CCCN2c1nc(C(=O)O)c(CCCOc2ccc(C#CC(C)(C)N(C)C)cc2F)s1` [Example 83, 2-[3-(1,3-Benzothiazol-2-ylamino)-4-methyl-6,7-dihydro-5H-pyrido[2,3-c]pyridazin-8-yl]-5-[3-[4-[3-(dimethylamino)-3-methyl-but-1-ynyl]-2-fluoro-phenoxy]propyl]thiazole-4-carboxylic acid]: the Ki in test [1] was 0.026 nM. This compound displayed an IC50 with MOLT-4 cells of 0.573 nM.

`Cc1c(Nc2nc3ccccc3s2)nnc2c1CCCN2c1ccc(-c2cnn(CC34CC5(C)CC(C)(C3)CC(OCCNCc3ccc(O)cc3)(C5)C4)c2C)c(C(=O)O)n1` [Example 149, 6-[3-(1,3-benzothiazol-2-ylamino)-4-methyl-6,7-dihydro-5H-pyrido[2,3-c]pyridazin-8-yl]-3-[1-[[3-[2-[(4-hydroxyphenyl)methylamino]ethoxy]-5,7-dimethyl-1-adamantyl]methyl]-5-methyl-pyrazol-4-yl]pyridine-2-carboxylic acid]: the Ki in test [1] was 0.0037 nM. This compound displayed an IC50 with MOLT-4 cells of 0.982 nM.

For `Cc1ccc2sc(Nc3nnc4c(c3C)CCCN4c3ccc(-c4cnn(CC56CC7(C)CC(C)(C5)CC(OCCN5CCCC5)(C7)C6)c4C)c(C(=O)O)n3)nc2c1` [Example 179, 3-[1-[[3,5-dimethyl-7-(2-pyrrolidin-1-ylethoxy)-1-adamantyl]methyl]-5-methyl-pyrazol-4-yl]-6-[4-methyl-3-[(5-methyl-1,3-benzothiazol-2-yl)amino]-6,7-dihydro-5H-pyrido[2,3-c]pyridazin-8-yl]pyridine-2-carboxylic acid], in test [1], the Ki is 0.0029 nM. In addition, in the test on MOLT-4 cells, the IC50 stood at 0.0916 nM.

In the case of `Cc1c(Nc2nc3ccccc3s2)nnc2c1CCCN2c1nc(C(=O)O)c(CCCOc2ccc(C#CCN(C(C)C)C(C)C)cc2F)s1` [Example 86, 2-[3-(1,3-Benzothiazol-2-ylamino)-4-methyl-6,7-dihydro-5H-pyrido[2,3-c]pyridazin-8-yl]-5-[3-[4-[3-(diisopropylamino)prop-1-ynyl]-2-fluoro-phenoxy]propyl]thiazole-4-carboxylic acid], the Ki in test [1] stood at 0.019 nM. Also, the concentration for half-maximal inhibition (IC50) with MOLT-4 cells turned out to be 1.5 nM.

In the case of `CNCCCCc1ccc(OCCCc2sc(N3CCCc4c3nnc(Nc3nc5ccccc5s3)c4C)nc2C(=O)O)c(F)c1` [Example 75, 2-{3-[(1,3-Benzothiazol-2-yl)amino]-4-methyl-5H,6H,7H,8H-pyrido[2,3-c]pyridazin-8-yl}-5-(3-{2-fluoro-4-[4-(methylamino)butyl]phenoxy}propyl)-1,3-thiazole-4-carboxylic acid], the Ki in test [1] stood at 0.0033 nM. For the same compound, in the test with MOLT-4 cells, the IC50 amounted to 9.78 nM.

Take `Cc1c(Nc2nc3ccccc3s2)nnc2c1CCCN2c1nc(C(=O)O)c(CCCOc2ccc(C#CCNCC[C@H](O)CO)cc2F)s1` [Example 129, 2-[3-(1,3-benzothiazol-2-ylamino)-4-methyl-6,7-dihydro-5H-pyrido[2,3-c]pyridazin-8-yl]-5-[3-[4-[3-[[(3S)-3,4-dihydroxybutyl]amino]prop-1-ynyl]-2-fluoro-phenoxy]propyl]thiazole-4-carboxylic acid]: the Ki in test [1] stood at 0.0047 nM. In the test with MOLT-4 cells, the IC50 is 3.11 nM.
